Assay results published in patent US20220096449A1, “METHOD OF TREATMENT WITH TRADIPITANT” (Vanda Pharmaceuticals Inc., priority 2018, published 2022).
Marks after values point to notes of the source that are not given here.

Key:
[1] = molecular target: T1, NK-2 receptor (Homo sapiens, UniProt P21452); experiment: NK-2 receptor inhibition; format: binding
T1 sequence (P21452 1-398): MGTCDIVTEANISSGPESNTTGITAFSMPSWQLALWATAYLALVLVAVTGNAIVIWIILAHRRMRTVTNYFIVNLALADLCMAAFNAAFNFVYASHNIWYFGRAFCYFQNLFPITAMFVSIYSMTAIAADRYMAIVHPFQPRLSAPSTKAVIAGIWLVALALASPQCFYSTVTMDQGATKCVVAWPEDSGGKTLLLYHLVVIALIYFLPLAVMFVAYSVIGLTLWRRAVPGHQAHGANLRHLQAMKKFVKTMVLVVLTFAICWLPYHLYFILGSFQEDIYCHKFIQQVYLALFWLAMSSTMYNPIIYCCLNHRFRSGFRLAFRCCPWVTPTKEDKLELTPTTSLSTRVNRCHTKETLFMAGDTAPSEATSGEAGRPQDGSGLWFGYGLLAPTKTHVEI

[2] = system: apomorphine-induced emesis; experiment: Apomorphine emetic challenge in beagle dogs; format: in vivo, beagle dog; settings: for Total No. Emetic Episodes: apomorphine 0.1 mg/kg iv 2 hours later, 5 dogs
Procedure: Over the five (5) weeks of the study, each animal receives each of the treatments, but only one per week. The purpose of this study is to determine if tradipitant suppresses apomorphine-induced emesis.
All animals are dosed over a period of five (5) weeks, with each dog receiving one of five different treatments on each day of dosing.
All dogs are fasted overnight prior to each treatment day and then fed approximately one (1) hour after oral dosing (approximately one (1) hour prior to administration of apomorphine). Individual doses are adjusted weekly for changes in body weight.
The dose regimen consists of a 5×5 Latin square design, in which each subject receives 1 dose or dose combination per week (6 day washout) as shown in Table 3 below.

[3] = molecular target: T2, NK-1 receptor (Cavia porcellus, UniProt P30547); experiment: GR73632-induced vocalization in guinea pigs; format: in vivo, guinea pig
T2 construct: from tissue; host or cells: living guinea pigs (central NK-1 receptors)
Procedure: Male Dunkin/Hartley guinea pigs (200 to 250 grams) are orally administered either vehicle or an NK-1 antagonist. Approximately 45 minutes later (for dose response studies), the animals are anesthetized and 0.1 nmol of GR73632 (SP analog) in a vehicle volume of 5 μl is injected into the cerebral ventricle at the intersection of bregma and the midline of the skull. Animals are placed in a dark testing chamber located inside of a sound attenuation cubicle and vocalizations are recorded for 30 minutes following recovery from anesthesia. The time spent vocalizing is quantified for each animal. In the duration of action study, 0.1 mg/kg of tradipitant or vehicle solution is administered orally and then 2, 4, or 7 hours later, 0.1 nmol of GR73632 is administered into the cerebral ventricle as described above. Vocalizations are recorded and quantified as indicated above. Vehicle solutions are either CMC (FIG. 4 data) or an ethanol/emulphor solution (FIGS. 5 and 6). Data is analyzed using one-tailed t-tests.

[4] = system: patients with idiopathic and diabetic gastroparesis; experiment: Phase II study VLY-686-2301, double blind randomized portion (Example 5); format: in vivo, human; settings: for CGI-S, change from baseline / DD-% Nausea Free Days, change from baseline / DD-Nausea (Daily Diary Nausea Score, 0-5), change from baseline / GCSI, change from baseline / PAGI-SYM, change from baseline / PGI-C: 4 weeks; for Daily Diary Nausea Weekly Average, Effect size estimate: tradipitant treatment arm
Description: In a phase II study of tradipitant in patients with idiopathic and diabetic gastroparesis, participants enter a 4 week screening period prior to treatment with tradipitant, during which they answer a daily symptom questionnaire rating their nausea severity on a scale of 0 to 5, in which 0 represents no nausea, 1 represents very mild nausea, 2 represents mild nausea, 3 represents moderate nausea, 4 represents severe nausea, and 5 represents very severe nausea. After the 4 week screening period, 141 gastroparesis patients in an Intent to Treat (ITT) population enter the 4 week double blind randomized portion of the study, in which they receive either tradipitant 85 mg bid, or placebo. Several symptom severity scales are used to assess gastroparesis symptoms, including the […] (GCSI), Patients Assessment of Upper Gastrointestinal Disorders-Symptoms (PAGI-SYM), and Patient Global Impression of Change (PGI-C), as well as a Clinician Global Impression of Severity (CGI-S). After 4 weeks of blinded study drug treatment, patients have the opportunity to enter an additional 8 week open label extension, during which each subject receives tradipitant 85 mg bid.
Abbreviations used in Table 6 include: Daily Diary Nausea Score, 0-5 (DD-Nausea); Daily Diary Nausea Free Days, percent 0-100 (DD-% Nausea Free Days); Intent to Treat (ITT); Gastroparesis Cardinal Symptom Index (GCSI); Patient Assessment of Gastrointestinal Disorders-Symptoms (PAGI-SYM); Clinician Global Impression of Severity (CGI-S); Patient Global Impression of Change (PGI-C). For DD-Nausea, DD-% Nausea Free Days, GCSI, PAGI-SYM and CGI-S, the values shown are changes from baseline.

[5] = ITT Population, 85 mg bid, n = 73
[6] = Vomiting Population, 85 mg bid, n = 58

T2 sequence (P30547 whole entry): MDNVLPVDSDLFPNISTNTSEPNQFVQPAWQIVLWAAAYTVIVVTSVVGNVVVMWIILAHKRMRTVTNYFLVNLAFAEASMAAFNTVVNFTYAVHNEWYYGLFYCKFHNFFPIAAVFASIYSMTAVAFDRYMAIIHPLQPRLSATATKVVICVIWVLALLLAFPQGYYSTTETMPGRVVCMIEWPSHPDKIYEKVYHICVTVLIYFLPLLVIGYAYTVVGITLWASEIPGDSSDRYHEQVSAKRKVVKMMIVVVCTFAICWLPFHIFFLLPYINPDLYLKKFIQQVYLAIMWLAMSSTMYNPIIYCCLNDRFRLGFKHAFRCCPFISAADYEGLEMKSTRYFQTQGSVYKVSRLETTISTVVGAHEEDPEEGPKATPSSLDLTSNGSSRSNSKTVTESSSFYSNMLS

Structure (SMILES): O=C(c1ccccc1Cl)c1cccnc1-c1nnn(Cc2cc(C(F)(F)F)cc(C(F)(F)F)c2)c1-c1ccncc1 [Tradipitant, {2-[1-(3,5-bistrifluoromethylbenzyl)-5-pyridin-4-yl-1H-[1,2,3]triazol-4-yl]-pyridin-3-yl}-(2-chlorophenyl)-methanone]
- inhibition at NK-2 receptor [1]: no significant inhibition
- Total No. Emetic Episodes ([2]; 0.3 mg/kg oral): 1**
- Total No. Emetic Episodes ([2]; 1.0 mg/kg oral): 1**
- Total No. Emetic Episodes ([2]; 3.0 mg/kg oral): 1**
- effect against apomorphine-induced emesis ([2]; each dose tested (0.3, 1.0, and 3.0 mg/kg)): effective
- suppression of agonist-induced vocalization ([3]; 0.1 mg/kg oral, 7 hours after administration): significantly active
- inhibitory activity on vocalization ([3]; at and below 0.1 mg/kg): retains significant inhibitory activity
- inhibition of agonist-induced vocalization ([3]; oral, 10, 1.0, 0.1 and 0.05 mg/kg (each p<0.001)): significant inhibition
- duration of activity ([3]; oral, guinea pig): exceeds 7 hours
- minimum effective dose (MED), inhibition of vocalization ([3]; oral, guinea pig): 0.025 mg/kg
- tolerability ([4]; 85 mg bid, confirms prior studies' findings): well tolerated
- CGI-S, change from baseline [4, 5]: −1.13
- DD-% Nausea Free Days, change from baseline [4, 5]: 28.8%
- DD-Nausea (Daily Diary Nausea Score, 0-5), change from baseline [4, 5]: −1.25
- GCSI, change from baseline [4, 5]: −0.93
- PAGI-SYM, change from baseline [4, 5]: −0.93
- PGI-C [4, 5]: 2.66
- DD-Nausea (Daily Diary Nausea Score, 0-5), change from baseline ([4]; ITT Population, 85 mg bid, n = 73, listed as tradipitant): −1.2
- CGI-S, change from baseline [4, 6]: −1.24
- DD-% Nausea Free Days, change from baseline [4, 6]: 32.3%
- DD-Nausea (Daily Diary Nausea Score, 0-5), change from baseline [4, 6]: −1.43
- GCSI, change from baseline [4, 6]: −1.10
- PAGI-SYM, change from baseline [4, 6]: −1.06
- PGI-C [4, 6]: 2.52
- DD-Nausea (Daily Diary Nausea Score, 0-5), change from baseline ([4]; Vomiting Population, 85 mg bid, n = 58, listed as tradipitant): −1.4
- Daily Diary Nausea Weekly Average, Effect size estimate ([4]; Week 1 vs Week 2): 0.314
- Daily Diary Nausea Weekly Average, Effect size estimate ([4]; Week 1 vs Week 3): 0.5556
- Daily Diary Nausea Weekly Average, Effect size estimate ([4]; Week 1 vs Week 4): 0.592
- Daily Diary Nausea Weekly Average, Effect size estimate ([4]; Week 2 vs Week 3): 0.2416
- Daily Diary Nausea Weekly Average, Effect size estimate ([4]; Week 2 vs Week 4): 0.278
- Daily Diary Nausea Weekly Average, Effect size estimate ([4]; Week 3 vs Week 4): 0.03647
